Active and inactive are the calls of the source. The calls are words filed in the database; no cut-off is given here.
What was measured:
[1] = species: Mus musculus; test: Antifibrotic activity against bleomycin-induced C57BL/6 mouse lung fibrosis model assessed as reduction in CD11c+MHC II+ in dendritic cells incubated for 30 mins by flow cytometry analysis; format: functional, organism-based
[2] = tested on: NIH3T3; test: Antiproliferative activity against mouse NIH3T3 cells assessed as cell growth inhibition incubated for 24 to 72 hrs by CCK-8 assay; format: functional, cell-based
[3] = tested on: NIH3T3; test: Antiproliferative activity against TGFbeta-induced mouse NIH3T3 cells assessed as cell viability at 6.25 to 100 nM incubated for 24 to 72 hrs by CCK-8 assay; format: functional, cell-based; conditions: dose 6.25-100 nM, time 24-72 hrs
[4] = tested on: NIH3T3; test: Inhibition of colony formation in mouse NIH3T3 cells assessed as inhibition of cell proliferation incubated for 2 weeks by crystal violet staining based microscopic analysis; format: functional; conditions: dose <= 100.0 nM
[5] = species: Mus musculus; test: Antifibrotic activity against bleomycin-induced C57BL/6 mouse lung fibrosis model assessed as reduction in F4/80+CD11b+ macrophage incubated for 30 mins by flow cytometry analysis; format: functional, organism-based
[6] = tested on: A549; test: Inhibition of epithelial-mesenchymal transition in TGF-beta1-induced human A549 cells assessed as effect on E-cadherin by measuring fluorescence intensity at 200 nM incubated for 24 hrs by immunofluorescence assays; format: functional, cell-based
[7] = species: Mus musculus; test: Antifibrotic activity against bleomycin-induced C57BL/6 mouse lung fibrosis model assessed as reduction in CD4-CD69+ T cell in lung at high dose incubated for 30 mins by flow cytometry analysis ( Rvb = 6.54%); format: functional; set-up: scale not given: the % may be the effect or the level left; conditions: 0.5 h
[8] = species: Mus musculus; test: Antifibrotic activity against bleomycin-induced C57BL/6 mouse lung fibrosis model assessed as reduction in CD11c+MHC II+ in dendritic cells in lung at high dose incubated for 30 mins by flow cytometry analysis ( Rvb = 23.67 %); format: functional; set-up: scale not given: the % may be the effect or the level left; conditions: 0.5 h
[9] = tested on: NIH3T3; test: Antiproliferative activity against mouse NIH3T3 cells assessed as cell growth inhibition incubated for 72 hrs by CCK-8 assay; format: functional, cell-based; conditions: dose 6.25-100 nM
[10] = species: Mus musculus; test: Antifibrotic activity against bleomycin-induced C57BL/6 mouse lung fibrosis model assessed as reduction in F4/80+CD11b+ macrophage in lung at high dose incubated for 30 mins by flow cytometry analysis ( Rvb = 17.96%); format: functional; set-up: scale not given: the % may be the effect or the level left; conditions: 0.5 h
[11] = tested on: A549; test: Induction of morphological changes in TGF-beta1 induced human A549 cells assessed as appearance of spindle shape cells at 200 nM measured for 24 hrs by phase contrast microscopy analysis; format: functional, cell-based
[12] = tested on: A549; test: Inhibition of epithelial-mesenchymal transition in human A549 cells assessed as effect on alpha-SMA by measuring fluorescence intensity measured for 24 hrs by immunofluorescence assays; format: functional, cell-based
[13] = tested on: Mus musculus; test: Antifibrotic activity against bleomycin-induced C57BL/6 mouse lung fibrosis model assessed as prevention of belomycin-induced collagen-1 expression in lung at 60 mg/kg, ip by immunohistochemical staining based analysis; format: functional, organism-based
[14] = tested on: A549; test: Inhibition of epithelial-mesenchymal transition in human A549 cells assessed as effect on E-cadherin by measuring fluorescence intensity measured for 24 hrs by immunofluorescence assays; format: functional, cell-based
[15] = tested on: Mus musculus; test: Antifibrotic activity against bleomycin-induced C57BL/6 mouse lung fibrosis model assessed as prevention of belomycin-induced alpha-SMA expression in lung at 60 mg/kg, ip by immunohistochemical staining based analysis; format: functional, organism-based
[16] = tested on: Mus musculus; test: Antifibrotic activity against bleomycin-induced C57BL/6 mouse lung fibrosis model assessed as reduction in STAT3 phosphorylation at Ty705 residue in lung at 60 mg/kg, ip by immunohistochemical staining based analysis; format: functional, organism-based
[17] = species: Mus musculus; test: Antifibrotic activity against bleomycin-induced C57BL/6 mouse lung fibrosis model assessed as reduction in CD4-CD69+ T cell in lung at low dose incubated for 30 mins by flow cytometry analysis ( Rvb = 6.54%); format: functional; set-up: scale not given: the % may be the effect or the level left; conditions: 0.5 h
[18] = tested on: A549; test: Inhibition of epithelial-mesenchymal transition in TGF-beta1-induced human A549 cells assessed as effect on alpha-SMA by measuring fluorescence intensity at 200 nM incubated for 24 hrs by immunofluorescence assays; format: functional, cell-based
[19] = molecular target: Signal transducer and activator of transcription 3 (Homo sapiens) (UniProt P40763); test: Binding affinity to STAT3 in human A549 cells assessed as reduction in protein degradation; format: cell-based
Sequence of Signal transducer and activator of transcription 3 (Homo sapiens) (P40763 whole entry): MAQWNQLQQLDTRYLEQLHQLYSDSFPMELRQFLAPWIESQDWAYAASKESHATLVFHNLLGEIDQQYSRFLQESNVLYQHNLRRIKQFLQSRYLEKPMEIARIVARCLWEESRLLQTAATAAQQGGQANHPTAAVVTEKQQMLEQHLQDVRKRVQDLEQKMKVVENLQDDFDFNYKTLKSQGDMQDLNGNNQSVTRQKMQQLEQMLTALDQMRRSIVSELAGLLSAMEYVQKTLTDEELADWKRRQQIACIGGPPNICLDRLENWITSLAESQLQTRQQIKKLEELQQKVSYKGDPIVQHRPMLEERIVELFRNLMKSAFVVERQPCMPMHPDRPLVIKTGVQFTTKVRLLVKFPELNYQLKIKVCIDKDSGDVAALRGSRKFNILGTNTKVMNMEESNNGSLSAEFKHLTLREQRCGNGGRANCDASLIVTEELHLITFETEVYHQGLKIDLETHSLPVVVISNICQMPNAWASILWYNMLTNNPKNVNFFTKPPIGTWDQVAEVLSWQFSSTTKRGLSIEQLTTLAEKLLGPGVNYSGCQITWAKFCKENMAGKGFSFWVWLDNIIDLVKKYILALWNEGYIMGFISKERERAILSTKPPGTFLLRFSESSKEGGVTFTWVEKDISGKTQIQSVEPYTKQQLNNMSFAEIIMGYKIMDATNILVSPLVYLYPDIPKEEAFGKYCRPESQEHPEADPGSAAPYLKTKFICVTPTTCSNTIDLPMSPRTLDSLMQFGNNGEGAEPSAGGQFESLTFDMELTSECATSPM

[20] = species: Mus musculus; test: Antifibrotic activity against bleomycin-induced C57BL/6 mouse lung fibrosis model assessed as reduction in F4/80+CD11b+ macrophage in lung at low dose incubated for 30 mins by flow cytometry analysis ( Rvb = 17.96%); format: functional; set-up: scale not given: the % may be the effect or the level left; conditions: 0.5 h
[21] = molecular target: Signal transducer and activator of transcription 3 (Mus musculus) (UniProt P42227); test: Binding affinity to STAT3 in mouse NIH3T3 cells assessed as reduction in protein degradation; format: cell-based
Sequence of Signal transducer and activator of transcription 3 (Mus musculus) (P42227 whole entry): as the sequence (P40763 whole entry) above, with E760D counted along it

[22] = tested on: Mus musculus; test: Antifibrotic activity against bleomycin-induced C57BL/6 mouse lung fibrosis model assessed as inhibition of hydroxyproline content in lung at 60 mg/kg, ip; format: functional, organism-based
[23] = tested on: NIH3T3; test: Antifibrotic activity in TGF-beta1-induced mouse NIH3T3 cells assessed as inhibition of collagen-1 expression at 50 nM incubated for 24 hrs by Western blot analysis; format: functional, cell-based
[24] = tested on: Mus musculus; test: Antifibrotic activity against bleomycin-induced C57BL/6 mouse lung fibrosis model assessed as inhibition of hydroxyproline content in lung at 60 mg/kg, ip administered for 7 to 14 days; format: functional, organism-based; conditions: time 7-14 day
[25] = tested on: NIH3T3; test: Antifibrotic activity in TGF-beta1-induced mouse NIH3T3 cells assessed as inhibition of alpha-SMA expression at 50 nM incubated for 24 hrs by Western blot analysis; format: functional, cell-based
[26] = Toxicity in C57BL/6 mouse assessed as kidney lesion at 60 mg/kg, ip by H and E staining based analysis; format: organism-based; conditions: in vivo
[27] = Toxicity in C57BL/6 mouse assessed as spleen lesion at 60 mg/kg, ip by H and E staining based analysis; format: organism-based; conditions: in vivo
[28] = tested on: Mus musculus; test: Antifibrotic activity against bleomycin-induced pulmonary fibrosis C57BL/6 mouse model assessed as reduction in alveolar septa thickness at 60 mg/kg, ip administered for 20 days and measured on 21 day; format: functional, organism-based
[29] = tested on: A549; test: Antiproliferative activity against TGFbeta-induced human A549 cells assessed as reduction in cell viability at 200 nM incubated for 72 hrs by CCK-8 assay; format: functional
[30] = Toxicity in C57BL/6 mouse assessed as heart lesion at 60 mg/kg, ip by H and E staining based analysis; format: organism-based; conditions: in vivo
[31] = tested on: A549; test: Inhibition of cell migration in TGF-beta1 induced human A549 cells measured for 24 hrs by contrast-phase microscopic analysis; format: functional, cell-based
[32] = tested on: NIH3T3; test: Antifibrotic activity in TGF-beta1-induced mouse NIH3T3 cells assessed as inhibition of STAT3 phosphorylation at 50 nM incubated for 24 hrs by Western blot analysis; format: functional, cell-based
[33] = tested on: A549; test: Antiproliferative activity against TGFbeta-induced human A549 cells assessed as reduction in cell viability incubated for 72 hrs by CCK-8 assay; format: functional, cell-based; conditions: dose 25-400 nM
[34] = tested on: Mus musculus; test: Antifibrotic activity against bleomycin-induced pulmonary fibrosis C57BL/6 mouse model assessed as increase in inter-alveolar space at 60 mg/kg, ip administered for 20 days and measured on 21 day; format: functional, organism-based
[35] = Toxicity in C57BL/6 mouse assessed as liver lesion at 60 mg/kg, ip by H and E staining based analysis; format: organism-based; conditions: in vivo
[36] = species: Mus musculus; test: Antifibrotic activity against bleomycin-induced C57BL/6 mouse lung fibrosis model assessed as reduction in CD4-CD69+ T cell incubated for 30 mins by flow cytometry analysis; format: functional, organism-based
[37] = species: Mus musculus; test: Antifibrotic activity against bleomycin-induced C57BL/6 mouse lung fibrosis model assessed as reduction in CD11c+MHC II+ in dendritic cells in lung at low dose incubated for 30 mins by flow cytometry analysis ( Rvb = 23.67 %); format: functional; set-up: scale not given: the % may be the effect or the level left; conditions: 0.5 h

Activity [19]: Active
Activity [21]: Active
SMILES: O=C(C1=Cc2ccccc2S1(=O)=O)N1CCN(Cc2cc(F)c(F)cc2F)CC1
Activity [1]: Active
IC50 [2]: 470 nM
Activity [3]: Active
inhibition [4]: Dose-Dependent Effect
Activity [5]: Active
inhibition [6]: Active
Activity [7]: 2.84%
Activity [8]: 9.28%
Activity [9]: Dose-Dependent Effect
Activity [10]: 10.45%
Activity [11]: Active
inhibition [12]: Active
Activity [13]: Active
inhibition [14]: Active
Activity [15]: Active
Activity [16]: Active
Activity [17]: 0.65%
inhibition [18]: Active
Activity [20]: 6.93%
Activity [22]: Active
Activity [23]: Active
Activity [24]: Active
Activity [25]: Active
Activity [26]: Non-Toxic
Activity [27]: Non-Toxic
Activity [28]: Active
Activity [29]: 50%
Activity [30]: Non-Toxic
inhibition [31]: Active
Activity [32]: Active
Activity [33]: Dose-Dependent Effect
Activity [34]: Active
Activity [35]: Non-Toxic
Activity [36]: Active
Activity [37]: 12.37%
